Biological target: T1, BDNF (Homo sapiens, UniProt P23560)
T1 construct: purchased human BDNF (Alomone Labs); noncovalent dimer; PDB 1B8M used only as docking model
T1 sequence (P23560 129-247): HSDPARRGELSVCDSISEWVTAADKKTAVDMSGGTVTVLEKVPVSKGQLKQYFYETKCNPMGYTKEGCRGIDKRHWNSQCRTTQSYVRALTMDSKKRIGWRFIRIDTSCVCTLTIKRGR
Experiment: surface plasmon resonance (Biacore T100, BDNF on CM5 chip, steady-state affinity fit)
Type: binding

Kd: ~14.2 µM
SMILES: O=c1cc(-c2ccc(O)cc2)oc2cc(O)cc(O)c12 [apigenin]

Reference: PMC10493664, “The neurotrophic activities of brain‐derived neurotrophic factor are potentiated by binding with apigenin, a common flavone in vegetables, in stimulating the receptor signaling” (CNS Neuroscience & Therapeutics, 2023)
